Literature values, collected in article PMC9663925, “Phase I pharmacokinetic study of an oral, small-molecule MEK inhibitor tunlametinib in patients with advanced NRAS mutant melanoma” (Frontiers in Pharmacology, 2022).
Read-outs that look alike come from different tables or passages of the source. One block for each compound: values may come before it.

Tmax (ref Infante et al., 2012): 1.0 to 2.08 h
Structure (SMILES): CC(=O)Nc1cccc(-n2c(=O)n(C3CC3)c(=O)c3c(Nc4ccc(I)cc4F)n(C)c(=O)c(C)c32)c1 [trametinib]

Tmax (ref Adjei et al., 2008): 1.0 to 3 h
Structure (SMILES): Cn1cnc2c(F)c(Nc3ccc(Br)cc3Cl)c(C(=O)NOCCO)cc21 [selumetinib]

Tmax (ref Bendell et al., 2017): 1.00 to 3.00 h
Structure (SMILES): Cn1cnc2c(F)c(Nc3ccc(Br)cc3F)c(C(=O)NOCCO)cc21 [binimetinib]

Tmax (ref Rosen et al., 2016): 2.4 to 3 h
Structure (SMILES): O=C(c1ccc(F)c(F)c1Nc1ccc(I)cc1F)N1CC(O)([C@@H]2CCCCN2)C1 [cobimetinib]
